How the values were obtained:
Assay in all cases: KINOMEscan
Format in all cases: binding
Conditions in all cases: read-out: percent of control
[1] = target: RPS6KA4 (Kin.Dom.2-C-terminal) (Homo sapiens (Human), UniProt O75676)
Procedure: (§1) In vitro profiling of Compound I-2 (1 μM) was performed using the DiscoveRx KINOMEscan® platform.

[2] = target: CHEK2 (Homo sapiens (Human), UniProt O96017)
Procedure: as §1

[3] = target: FLT3 (D835V) (Homo sapiens (Human), UniProt P36888, D835V)
Procedure: as §1

[4] = target: AMPK-alpha2 (Homo sapiens (Human), UniProt P54646)
Procedure: as §1

[5] = target: SBK1 (Homo sapiens (Human), UniProt Q52WX2)
Procedure: as §1

[6] = target: FAK (Homo sapiens (Human), UniProt Q05397)
Procedure: as §1

[7] = target: CDK2 (Homo sapiens (Human), UniProt P24941)
Procedure: as §1

[8] = target: ABL1(F317L)-phosphorylated (Homo sapiens (Human), UniProt P00519, F317L)
Procedure: as §1

[9] = target: MYO3B (Homo sapiens (Human), UniProt Q8WXR4)
Procedure: as §1

[10] = target: PIP5K2B (Homo sapiens (Human), UniProt P78356)
Procedure: as §1

[11] = target: PRKCD (Homo sapiens (Human), UniProt Q05655)
Procedure: as §1

[12] = target: KIT (Homo sapiens (Human), UniProt P10721)
Procedure: as §1

[13] = target: CDKL3 (Homo sapiens (Human), UniProt Q8IVW4)
Procedure: as §1

[14] = target: PIP5K1C (Homo sapiens (Human), UniProt O60331)
Procedure: as §1

[15] = target: HASPIN (Homo sapiens (Human), UniProt Q8TF76)
Procedure: as §1

[16] = target: MEK3 (Homo sapiens (Human), UniProt P46734)
Procedure: as §1

[17] = target: TYK2(JH2domainpseudokia (Homo sapiens (Human), UniProt P29597))
Procedure: as §1

[18] = target: DCAMKL2 (Homo sapiens (Human), UniProt Q8N568)
Procedure: as §1

[19] = target: TRKB (Homo sapiens (Human), UniProt Q16620)
Procedure: as §1

[20] = target: CAMK1B (Homo sapiens (Human), UniProt Q6P2M8)
Procedure: as §1

[21] = target: PCTK2 (Homo sapiens (Human), UniProt Q00537)
Procedure: as §1

[22] = target: KIT(A829P) (Homo sapiens (Human), UniProt P10721, A829P)
Procedure: as §1

[23] = target: NEK10 (Homo sapiens (Human), UniProt Q6ZWH5)
Procedure: as §1

[24] = target: FGFR3 (G697C) (Homo sapiens (Human), UniProt P22607, G697C)
Procedure: as §1

[25] = target: CDKL1 (Homo sapiens (Human), UniProt Q00532)
Procedure: as §1

[26] = target: FES (Homo sapiens (Human), UniProt P07332)
Procedure: as §1

[27] = target: ADCK3 (Homo sapiens (Human), UniProt Q8NI60)
Procedure: as §1

[28] = target: MAP3K15 (Homo sapiens (Human), UniProt Q6ZN16)
Procedure: as §1

[29] = target: JAK1(JH2domainpseudokinase) (Homo sapiens (Human), UniProt P23458)
Procedure: as §1

[30] = target: MET(Y1235D) (Homo sapiens (Human), UniProt P08581, Y1235D)
Procedure: as §1

[31] = target: GAK (Homo sapiens (Human), UniProt O14976)
Procedure: as §1

[32] = target: RSK3 (Kin.Dom.2-C-terminal) (Homo sapiens (Human), UniProt Q15349)
Procedure: as §1

[33] = target: HCK (Homo sapiens (Human), UniProt P08631)
Procedure: as §1

[34] = target: ERK5 (Homo sapiens (Human), UniProt Q13164)
Procedure: as §1

[35] = target: PIK3CA(E545K) (Homo sapiens (Human), UniProt P42336, E545K)
Procedure: as §1

[36] = target: FLT3 (N841I) (Homo sapiens (Human), UniProt P36888, N841I)
Procedure: as §1

[37] = target: GSK3A (Homo sapiens (Human), UniProt P49840)
Procedure: as §1

[38] = target: SRPK1 (Homo sapiens (Human), UniProt Q96SB4)
Procedure: as §1

Sequence of PIK3CA(E545K) (P42336 whole entry E545K): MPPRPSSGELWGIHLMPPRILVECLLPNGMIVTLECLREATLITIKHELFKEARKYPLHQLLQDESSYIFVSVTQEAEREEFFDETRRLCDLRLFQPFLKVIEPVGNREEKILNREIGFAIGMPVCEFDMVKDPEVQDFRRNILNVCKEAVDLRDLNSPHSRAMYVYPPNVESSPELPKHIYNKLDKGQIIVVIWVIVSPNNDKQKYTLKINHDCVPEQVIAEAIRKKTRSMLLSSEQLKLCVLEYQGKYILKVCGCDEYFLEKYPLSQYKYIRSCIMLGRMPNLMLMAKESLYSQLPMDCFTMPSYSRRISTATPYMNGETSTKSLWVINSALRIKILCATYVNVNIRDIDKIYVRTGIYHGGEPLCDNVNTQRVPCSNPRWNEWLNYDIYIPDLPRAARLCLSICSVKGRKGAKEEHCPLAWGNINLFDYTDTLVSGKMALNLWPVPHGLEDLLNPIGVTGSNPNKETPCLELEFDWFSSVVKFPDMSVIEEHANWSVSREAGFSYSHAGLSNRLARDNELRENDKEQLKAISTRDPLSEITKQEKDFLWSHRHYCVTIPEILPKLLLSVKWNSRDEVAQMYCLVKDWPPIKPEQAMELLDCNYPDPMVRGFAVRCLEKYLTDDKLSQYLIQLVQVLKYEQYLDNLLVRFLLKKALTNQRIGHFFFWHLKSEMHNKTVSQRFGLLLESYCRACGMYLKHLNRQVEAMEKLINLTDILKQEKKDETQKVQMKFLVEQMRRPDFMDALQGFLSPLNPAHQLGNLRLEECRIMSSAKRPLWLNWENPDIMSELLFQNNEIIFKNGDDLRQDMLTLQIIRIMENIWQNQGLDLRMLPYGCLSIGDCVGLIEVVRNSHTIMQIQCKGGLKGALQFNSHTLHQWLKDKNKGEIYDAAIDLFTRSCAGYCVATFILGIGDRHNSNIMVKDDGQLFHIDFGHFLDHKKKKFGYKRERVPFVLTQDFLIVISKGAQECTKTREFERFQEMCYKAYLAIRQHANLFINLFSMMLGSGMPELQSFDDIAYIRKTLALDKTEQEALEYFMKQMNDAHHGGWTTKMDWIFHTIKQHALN
Sequence of AMPK-alpha2 (P54646 whole entry): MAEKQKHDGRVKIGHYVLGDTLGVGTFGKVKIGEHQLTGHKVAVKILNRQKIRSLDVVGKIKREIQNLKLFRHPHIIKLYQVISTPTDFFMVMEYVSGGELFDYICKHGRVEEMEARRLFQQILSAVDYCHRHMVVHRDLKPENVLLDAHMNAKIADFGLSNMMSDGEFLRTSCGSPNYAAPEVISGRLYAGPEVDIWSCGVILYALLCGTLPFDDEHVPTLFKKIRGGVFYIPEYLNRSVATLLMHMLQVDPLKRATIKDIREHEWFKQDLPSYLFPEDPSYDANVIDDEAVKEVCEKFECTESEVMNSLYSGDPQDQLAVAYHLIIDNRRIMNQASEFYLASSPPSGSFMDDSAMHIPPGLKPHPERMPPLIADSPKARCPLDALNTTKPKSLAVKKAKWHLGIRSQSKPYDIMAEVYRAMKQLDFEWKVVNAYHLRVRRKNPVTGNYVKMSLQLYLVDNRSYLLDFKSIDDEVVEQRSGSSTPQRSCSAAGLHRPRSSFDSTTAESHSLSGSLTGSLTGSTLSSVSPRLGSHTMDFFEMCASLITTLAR
Sequence of CDKL1 (Q00532 whole entry): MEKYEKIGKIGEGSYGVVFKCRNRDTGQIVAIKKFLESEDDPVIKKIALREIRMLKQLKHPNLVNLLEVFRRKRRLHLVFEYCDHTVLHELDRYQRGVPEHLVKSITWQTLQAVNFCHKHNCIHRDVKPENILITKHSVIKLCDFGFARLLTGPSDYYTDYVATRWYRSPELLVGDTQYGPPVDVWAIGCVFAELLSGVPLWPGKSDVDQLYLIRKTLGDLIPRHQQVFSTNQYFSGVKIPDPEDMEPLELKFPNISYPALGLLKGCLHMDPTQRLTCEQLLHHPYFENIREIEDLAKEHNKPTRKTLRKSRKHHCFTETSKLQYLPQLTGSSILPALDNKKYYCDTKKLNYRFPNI
Sequence of ERK5 (Q13164 whole entry): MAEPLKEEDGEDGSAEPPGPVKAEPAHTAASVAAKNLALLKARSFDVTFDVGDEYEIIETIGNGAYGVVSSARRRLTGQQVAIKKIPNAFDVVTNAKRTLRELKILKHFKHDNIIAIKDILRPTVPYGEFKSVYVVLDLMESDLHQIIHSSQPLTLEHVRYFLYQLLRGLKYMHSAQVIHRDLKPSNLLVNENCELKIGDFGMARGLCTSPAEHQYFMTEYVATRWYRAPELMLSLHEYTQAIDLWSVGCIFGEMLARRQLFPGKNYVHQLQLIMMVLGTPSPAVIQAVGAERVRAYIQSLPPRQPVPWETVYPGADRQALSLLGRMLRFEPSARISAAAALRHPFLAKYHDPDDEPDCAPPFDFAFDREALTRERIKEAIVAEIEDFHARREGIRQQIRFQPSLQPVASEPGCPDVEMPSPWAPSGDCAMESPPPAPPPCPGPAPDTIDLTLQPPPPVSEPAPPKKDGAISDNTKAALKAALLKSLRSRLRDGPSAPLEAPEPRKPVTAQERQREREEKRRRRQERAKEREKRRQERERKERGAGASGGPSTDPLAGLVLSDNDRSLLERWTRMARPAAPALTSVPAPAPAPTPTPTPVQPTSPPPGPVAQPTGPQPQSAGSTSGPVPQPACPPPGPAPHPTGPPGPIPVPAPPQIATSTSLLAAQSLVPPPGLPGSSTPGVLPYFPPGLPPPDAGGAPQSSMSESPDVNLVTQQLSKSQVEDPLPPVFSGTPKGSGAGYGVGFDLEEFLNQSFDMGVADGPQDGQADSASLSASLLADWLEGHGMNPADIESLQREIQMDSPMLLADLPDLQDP
Sequence of GSK3A (P49840 whole entry): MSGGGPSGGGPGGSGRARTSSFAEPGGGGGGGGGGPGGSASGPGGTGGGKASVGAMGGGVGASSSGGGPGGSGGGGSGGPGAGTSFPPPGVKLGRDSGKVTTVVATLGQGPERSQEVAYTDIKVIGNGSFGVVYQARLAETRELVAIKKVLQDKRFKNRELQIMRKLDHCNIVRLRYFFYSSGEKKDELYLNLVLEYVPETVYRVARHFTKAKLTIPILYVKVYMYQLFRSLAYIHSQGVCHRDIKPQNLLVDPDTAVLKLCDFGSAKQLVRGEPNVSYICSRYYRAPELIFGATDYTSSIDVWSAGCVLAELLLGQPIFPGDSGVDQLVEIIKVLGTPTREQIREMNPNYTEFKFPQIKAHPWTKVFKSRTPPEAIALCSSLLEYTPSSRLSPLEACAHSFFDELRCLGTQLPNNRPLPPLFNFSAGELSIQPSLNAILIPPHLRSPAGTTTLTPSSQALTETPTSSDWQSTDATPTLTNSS
Sequence of PRKCD (Q05655 whole entry): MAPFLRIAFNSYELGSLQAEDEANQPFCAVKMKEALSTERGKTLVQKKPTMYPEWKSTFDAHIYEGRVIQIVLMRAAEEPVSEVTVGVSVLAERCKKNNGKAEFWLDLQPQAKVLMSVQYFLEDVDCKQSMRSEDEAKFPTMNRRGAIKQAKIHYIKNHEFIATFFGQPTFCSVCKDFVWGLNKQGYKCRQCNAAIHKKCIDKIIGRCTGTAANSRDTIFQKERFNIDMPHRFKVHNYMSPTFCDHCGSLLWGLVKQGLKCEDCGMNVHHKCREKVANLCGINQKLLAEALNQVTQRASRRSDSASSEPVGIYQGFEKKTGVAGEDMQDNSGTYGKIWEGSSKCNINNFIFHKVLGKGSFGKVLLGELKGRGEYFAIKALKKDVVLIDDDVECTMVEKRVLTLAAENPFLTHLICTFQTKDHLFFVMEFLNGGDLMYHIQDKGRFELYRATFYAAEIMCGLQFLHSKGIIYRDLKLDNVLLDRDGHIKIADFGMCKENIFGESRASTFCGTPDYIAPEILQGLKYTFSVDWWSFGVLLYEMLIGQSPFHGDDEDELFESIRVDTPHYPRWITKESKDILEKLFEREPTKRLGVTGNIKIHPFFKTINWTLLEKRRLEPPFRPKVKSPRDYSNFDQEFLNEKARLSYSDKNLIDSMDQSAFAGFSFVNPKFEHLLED
Sequence of MEK3 (P46734 whole entry): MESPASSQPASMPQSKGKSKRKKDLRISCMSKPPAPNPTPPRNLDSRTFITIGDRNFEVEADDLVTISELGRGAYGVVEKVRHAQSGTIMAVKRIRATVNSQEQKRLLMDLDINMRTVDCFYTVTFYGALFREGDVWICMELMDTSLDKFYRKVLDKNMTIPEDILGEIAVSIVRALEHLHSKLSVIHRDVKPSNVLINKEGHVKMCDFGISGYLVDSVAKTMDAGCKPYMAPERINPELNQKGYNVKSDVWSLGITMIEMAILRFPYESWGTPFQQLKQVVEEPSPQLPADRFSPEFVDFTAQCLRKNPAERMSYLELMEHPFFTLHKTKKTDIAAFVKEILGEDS
Sequence of PIP5K1C (O60331 whole entry): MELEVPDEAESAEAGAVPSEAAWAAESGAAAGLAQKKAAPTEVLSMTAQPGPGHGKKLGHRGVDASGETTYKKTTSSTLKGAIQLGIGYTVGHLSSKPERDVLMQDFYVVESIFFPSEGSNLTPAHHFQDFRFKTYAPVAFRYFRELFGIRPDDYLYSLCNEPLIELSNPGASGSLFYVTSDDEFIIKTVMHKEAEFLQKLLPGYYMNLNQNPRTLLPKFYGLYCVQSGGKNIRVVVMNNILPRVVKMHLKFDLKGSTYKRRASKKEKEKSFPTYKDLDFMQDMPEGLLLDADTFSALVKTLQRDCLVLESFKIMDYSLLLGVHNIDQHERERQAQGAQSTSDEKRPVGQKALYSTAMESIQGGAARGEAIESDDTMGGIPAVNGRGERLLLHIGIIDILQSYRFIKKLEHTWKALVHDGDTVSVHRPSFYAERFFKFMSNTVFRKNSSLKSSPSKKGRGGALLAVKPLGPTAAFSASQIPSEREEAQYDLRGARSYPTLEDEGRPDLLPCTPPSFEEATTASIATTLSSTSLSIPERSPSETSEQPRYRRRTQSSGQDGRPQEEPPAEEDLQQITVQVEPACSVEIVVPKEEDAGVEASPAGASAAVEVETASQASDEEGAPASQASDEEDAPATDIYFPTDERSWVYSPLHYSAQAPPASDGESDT

Row | Structure (SMILES) | remaining binding at 1 µM [1] | remaining binding at 1 µM [2] | remaining binding at 1 µM [3] | remaining binding at 1 µM [4] | remaining binding at 1 µM [5] | remaining binding at 1 µM [6] | remaining binding at 1 µM [7] | remaining binding at 1 µM [8] | remaining binding at 1 µM [9] | remaining binding at 1 µM [10] | remaining binding at 1 µM [11] | remaining binding at 1 µM [12] | remaining binding at 1 µM [13] | remaining binding at 1 µM [14] | remaining binding at 1 µM [15] | remaining binding at 1 µM [16] | remaining binding at 1 µM [17] | remaining binding at 1 µM [18] | remaining binding at 1 µM [19] | remaining binding at 1 µM [20] | also measured
1 | CCN1CCN(Cc2cc(NC(=O)c3ccc(C)c(-c4ccc5nc(NC(=O)C6CC6)cn5n4)c3)cc(C(F)(F)F)c2)CC1 [Compound I-2, 3-(2-(cyclopropanecarboxamido)imidazo[1,2-b]pyridazin-6-yl)-N-(3-((4-ethylpiperazin-1-yl)methyl)-5-(trifluoromethyl)phenyl)-4-methylbenzamide] | 79% | 90% | 5.3% | 99% | 99% | 1.9% | 7% | 1.1% | 80% | 93% | 40% | 0% | 0.4% | 85% | 87% | 71% | 80% | 98% | 0.05% | 49% | remaining binding at 1 µM [21]: 1.8%; remaining binding at 1 µM [22]: 0%; remaining binding at 1 µM [23]: 75%; remaining binding at 1 µM [24]: 87%; remaining binding at 1 µM [25]: 40%; remaining binding at 1 µM [26]: 12%; remaining binding at 1 µM [27]: 97%; remaining binding at 1 µM [28]: 55%; remaining binding at 1 µM [29]: 100%; remaining binding at 1 µM [30]: 8.7%; remaining binding at 1 µM [31]: 99%; remaining binding at 1 µM [32]: 98%; remaining binding at 1 µM [33]: 0%; remaining binding at 1 µM [34]: 95%; remaining binding at 1 µM [35]: 99%; remaining binding at 1 µM [36]: 0%; remaining binding at 1 µM [37]: 43%; remaining binding at 1 µM [38]: 85%
2 | CCN1CCN(Cc2cc(NC(=O)c3ccc(C)c(-c4ccc5nc(NC(=O)C6CC6)cn5c4)c3)cc(C(F)(F)F)c2)CC1 [Compound I-6, 3-(2-(cyclopropanecarboxamido)imidazo[1,2-a]pyridin-6-yl)-N-(3-((4-ethylpiperazin-1-yl)methyl)-5-(trifluoromethyl)phenyl)-4-methylbenzamide] | 100% | 93% | 7.7% | 99% | 97% | 7.9% | 60% | 1.3% | 49% | 86% | 48% | 0% | 0% | 94% | 64% | 87% | 95% | 100% | 0% | 97% | remaining binding at 1 µM [21]: 1.3%; remaining binding at 1 µM [22]: 12%; remaining binding at 1 µM [23]: 62%; remaining binding at 1 µM [24]: 69%; remaining binding at 1 µM [25]: 77%; remaining binding at 1 µM [26]: 0.95%; remaining binding at 1 µM [27]: 96%; remaining binding at 1 µM [28]: 95%; remaining binding at 1 µM [29]: 72%; remaining binding at 1 µM [30]: 8.9%; remaining binding at 1 µM [31]: 93%; remaining binding at 1 µM [32]: 89%; remaining binding at 1 µM [33]: 0.05%; remaining binding at 1 µM [34]: 92%; remaining binding at 1 µM [35]: 93%; remaining binding at 1 µM [36]: 0%; remaining binding at 1 µM [37]: 68%; remaining binding at 1 µM [38]: 57%

— patent US20230391768A2, “IMIDAZOPYRIDINE DERIVATIVES AND AZA-IMIDAZOPYRIDINE DERIVATIVES AS JANUS KINASE 2 INHIBITORS AND USES THEREOF” (Dana-Farber Cancer Institute, Inc., priority 2018, published 2023)
